Assay [1] deals with L6-myotubes. In words: Glucose uptake in differentiated L6-myotubes (Biological Example 2). It is filed as cell-based. Particulars: for Emax at 10 µM: read-out: Biological example 2 (GU). The method, then:
(§1) Compounds described in publications referenced and incorporated herein were screened in accordance with the procedures outlined in Biological example 2 and Biological example 3.
Differentiated L6-myotubes were serum-starved overnight in medium containing 0.5% fatty-acid free BSA and stimulated with isoprenaline or the test compound, with a final concentration of 1×10^−5 M. After 1 h 40 min the cells were washed with warm glucose free medium or PBS twice and another portion of agonist was added to the glucose free medium. After 20 min the cells were exposed to 50 nM ^3H-2-deoxyglucose for 10 min before washed with ice cold glucose free medium or PBS three times and lysed with 0.2 M NaOH, 400 μL/well, for 1 h at 60° C. The cell lysate was mixed with 4 mL scintillation buffer (Emulsifier Safe, Perkin Elmer) and the radioactivity was detected in a […] (Tri-Carb 4810TR, Perkin Elmer).

In assay [2] the test system is L6-myotubes. The experiment in a line: Measurement of intracellular cAMP levels in differentiated L6-myotubes (Biological Example 3). Particulars: for Emax at 10 µM: 0.25 h. It is filed as cell-based. The procedure:
as §1
Differentiated L6-myotubes were serum-starved overnight and stimulated with isoprenaline or the test compound with a final concentration of 1×10^−5 M, for 15 min in stimulation buffer (HBSS supplemented with 1% BSA, 5 mM HEPES and 1 mM IBMX, pH 7.4). The medium was aspirated and 100 μL of 95% EtOH was added to each well of the 24-well plate and cells were kept at −20° C. overnight. The EtOH was allowed to evaporate and 500 μL of lysis buffer (1% BSA, 5 mM HEPES and 0.3% Tween-20, pH 7.4) was added to each well. The plate was kept at −80° C. for 30 min and then at −20° C. until the day of detection when the samples were thawed. Intracellular cAMP levels were detected using an alpha screen cAMP kit (6760635D from Perkin Elmer).
(Cyclic AMP is a second messenger, typically raised through Gs and lowered through Gi signalling.)

[3] abbreviates: glucose uptake in differentiated L6-myotubes, compound at 10 μM, activity relative to isoproterenol at 10 μM.
The mark [4] stands for this setting: intracellular cAMP in differentiated L6-myotubes, compound at 10 μM, activity relative to isoproterenol at 10 μM.
Setting [5] is: glucose uptake, compound at 10 μM relative to isoproterenol at 10 μM.
Setting [6] is: intracellular cAMP, compound at 10 μM relative to isoproterenol at 10 μM.

Consider `CC1(C)C[C@@H]([C@@H](O)c2cccc(Cl)c2)N1` [Compound 231], for which the results for the Emax at 10 µM in the assay on L6-myotubes [1] (setting [3]) and in the assay on L6-myotubes [2] (setting [4]) were 25 to 50% and less than 25%, respectively.

As for `CC(C)(NC[C@H](O)c1cncc(F)c1)[C@H]1CC[C@@H](OCc2ccccc2)CC1` [Compound 282, (R)-1-(5-fluoro-3-pyridyl)-2-{1-methyl-1-[(1s,4S)-4-(benzyloxy)cyclohexyl]ethylamino}-1-ethanol], the values for the Emax at 10 µM in the assay on L6-myotubes [1] (setting [3]) and in the assay with L6-myotubes [2] (setting [4]) were 50 to 75% and less than 25%, respectively. On to `CO[C@H]1CC[C@H](CC(C)(C)NC[C@H](O)c2cncc(F)c2)CC1` [Compound 250, (R)-2-{1,1-dimethyl-2-[(1r,4R)-4-methoxycyclohexyl]ethylamino}-1-(5-fluoro-3-pyridyl)-1-ethanol], for which the Emax at 10 µM in the assay on L6-myotubes [1] (setting [3]) is 50 to 75%; in the assay on L6-myotubes [2] (setting [4]), less than 25%. On to `CC(C)(C[C@H]1CC[C@H](NS(C)(=O)=O)CC1)NC[C@H](O)c1cccc(C(F)(F)F)n1` [Compound 461, (S)-2-{1,1-dimethyl-2-[(1r,4S)-4-(mesylamino)cyclohexyl]ethylamino}-1-[6-(trifluoromethyl)-2-pyridyl]-1-ethanol], for which the figures for the Emax at 10 µM in the assay with L6-myotubes [1] (setting [3]) and in the assay with L6-myotubes [2] (setting [4]) were 25 to 50% and less than 25%, respectively. With `CCC[C@@H]1CC[C@H](C(O)c2cccc(O)c2)N1` (stereo in doubt) [Compound 57, m-{(R)-[(2R,5R)-5-propyl-2-pyrrolidinyl] hydroxymethyl}phenol], in the assay on L6-myotubes [1] (setting [5]), the “Biological example 2 (GU)” value is listed as “+++ (If a compound at 10 μM shows activity of more than 75% of that of isoproterenol at 10 μM, the activity is denoted with +++)”. The “Biological example 3 (CAMP)” value in the assay on L6-myotubes [2] (setting [6]) was “++ (if it is between 75 and 50% it is denoted with ++)”. As to `CCC[C@@H]1CCC[C@H]([C@H](O)c2ccccc2F)N1` [Compound 97, (R)-[(2R,6R)-6-propyl-2-piperidyl](o-fluorophenyl)methanol], the Emax at 10 µM was 50 to 75% in the assay with L6-myotubes [1] (setting [5]) and less than 25% in the assay with L6-myotubes [2] (setting [6]). In the case of `CC(C)(C[C@H]1CC[C@@H](N)CC1)NC[C@H](O)c1cncc(F)c1` [Compound 466], the Emax at 10 µM with L6-myotubes [1] (setting [3]) was 50 to 75%; in the assay on L6-myotubes [2] (setting [4]), less than 25%. Consider `CC1(C)CC[C@H]([C@@H](O)c2ccccc2Cl)N1` [Compound 151], for which the Emax at 10 µM in the assay on L6-myotubes [1] (setting [5]) and with L6-myotubes [2] (setting [6]) was less than 25% each time. On to `CCS(=O)(=O)N[C@H]1CC[C@@H](CC(C)(C)NC[C@H](O)c2cncc(F)c2)CC1` [Compound 524], for which the Emax at 10 µM in the assay on L6-myotubes [1] (setting [3]) was 50 to 75%; in the assay on L6-myotubes [2] (setting [4]), less than 25%. As for `CC1(C)CC[C@H]([C@@H](O)c2ccccc2F)N1` [Compound 174, (S)-[(R)-5,5-dimethyl-2-pyrrolidinyl](o-fluorophenyl)methanol], the Emax at 10 µM in the assay with L6-myotubes [1] (setting [5]) and in the assay on L6-myotubes [2] (setting [6]) was less than 25% in each case. For the molecule `O[C@H](c1cccc(F)c1)[C@H]1CC[C@@H](Cc2ccc(Cl)cc2)N1` [Compound 392, (R)-{(2R,5S)-5-[(p-chlorophenyl)methyl]-2-pyrrolidinyl}(m-fluorophenyl)methanol], the results for the Emax at 10 µM with L6-myotubes [1] (setting [3]) and in the assay on L6-myotubes [2] (setting [4]) were more than 75% and less than 25%, respectively. For `CS(=O)(=O)N[C@H]1CC[C@@H](C[C@@H]2CC[C@H]([C@@H](O)c3cccc(F)c3)N2)CC1` [Compound 511], in that order: 25 to 50% and less than 25%. For `CC(C)(C[C@H]1CC[C@H](C(=O)O)CC1)NC[C@H](O)c1cccc(F)c1` [Compound 355, (1R,4r)-4-{2-[(R)-2-(m-fluorophenyl)-2-hydroxyethylamino]-2-methylpropyl} cyclohexanecarboxylic acid], in that order: 50 to 75% and less than 25%. Take `CCC[C@H](C)NC[C@H](O)c1cccc(F)c1` [Compound 51]: the Emax at 10 µM in the assay on L6-myotubes [1] (setting [5]) is more than 75%; with L6-myotubes [2] (setting [6]), less than 25%. For `CC1(C)CCC[C@H]([C@@H](O)c2ccccc2F)N1` [Compound 176, (S)-[(R)-6,6-dimethyl-2-piperidyl](o-fluorophenyl)methanol] the same measures were more than 75% and 25 to 50%. For the molecule `CO[C@H]1CC[C@H](CCNC[C@H](O)c2cncc(F)c2)CC1` [Compound 225, (R)-1-(5-fluoro-3-pyridyl)-2-{2-[(1r,4R)-4-methoxycyclohexyl]ethylamino}-1-ethanol], the Emax at 10 µM was 50 to 75% in the assay with L6-myotubes [1] (setting [3]) and less than 25% with L6-myotubes [2] (setting [4]).

Consider `CC(=O)N[C@H]1CC[C@H](C[C@@H]2CC[C@H]([C@@H](O)c3cccc(F)c3)N2)CC1` [Compound 486], for which the Emax at 10 µM with L6-myotubes [1] (setting [3]) is 50 to 75%; with L6-myotubes [2] (setting [4]), less than 25%. For `O[C@@H](c1cccc(F)c1)C12CCC(COc3ccc(Cl)cc3)(CC1)N2` [Compound 440] the same measures were more than 75% and less than 25%.

With `CC1(C)CCC[C@H]([C@H](O)c2cccc(O)c2)N1` [Compound 104, (R)-[(R)-6,6-dimethyl-2-piperidyl](m-hydroxyphenyl)methanol], the Emax at 10 µM is 25 to 50% with L6-myotubes [1] (setting [5]) and less than 25% in the assay on L6-myotubes [2] (setting [6]). In the case of `CC12CCC([C@H](O)c3ccncc3F)(CC1)N2` [Compound 254, (R)-(3-fluoro-4-pyridyl)(4-methyl-7-azabicyclo[[2.2.1]]hept-1-yl)methanol], the Emax at 10 µM in the assay with L6-myotubes [1] (setting [3]) and in the assay on L6-myotubes [2] (setting [4]) was less than 25% each time. Regarding `CC(C)(C[C@H]1CC[C@H](NS(C)(=O)=O)CC1)NC[C@@H](O)c1cccc(C#N)n1` [Compound 428, 6-[(R)-2-{1,1-dimethyl-2-[(1r,4R)-4-(mesylamino)cyclohexyl]ethylamino}-1-hydroxyethyl]-2-pyridinecarbonitrile], the Emax at 10 µM with L6-myotubes [1] (setting [3]) and in the assay on L6-myotubes [2] (setting [4]) was less than 25% in each case. With `CS(=O)(=O)N[C@H]1CC[C@H](C[C@@H]2CC[C@H]([C@H](O)c3cccc(F)c3)N2)CC1` [Compound 504], the results for the Emax at 10 µM in the assay with L6-myotubes [1] (setting [3]) and in the assay on L6-myotubes [2] (setting [4]) were 50 to 75% and less than 25%, respectively. For `O[C@@H](c1cccc(F)c1)C12CCC(COCc3ccc(F)cc3)(CC1)N2` [Compound 438, (S)-(m-fluorophenyl)(4-{[(p-fluorophenyl)methoxy]methyl}-7-azabicyclo[[2.2.1]]hept-1-yl)methanol] the same measures were less than 25% and less than 25%. As to `CCC[C@H](C)NC[C@H](O)c1ccc(F)cc1` [Compound 53, (R)-2-[(S)-1-methylbutylamino]-1-(p-fluorophenyl)-1-ethanol], the Emax at 10 µM is 50 to 75% in the assay on L6-myotubes [1] (setting [5]) and less than 25% in the assay with L6-myotubes [2] (setting [6]). Consider `CC(C)(C[C@H]1CC[C@@H](O)CC1)NC[C@H](O)c1cncc(F)c1` [Compound 301, (R)-2-{1,1-dimethyl-2-[(1s,4S)-4-hydroxycyclohexyl]ethylamino}-1-(5-fluoro-3-pyridyl)-1-ethanol], for which the Emax at 10 µM in the assay with L6-myotubes [1] (setting [3]) is more than 75%; in the assay on L6-myotubes [2] (setting [4]), less than 25%. For `COc1ccc(C[C@@H]2CC[C@H]([C@H](O)c3cncc(F)c3)N2)cc1` [Compound 378, (R)-{(2R,5S)-5-[(p-methoxyphenyl)methyl]-2-pyrrolidinyl}(5-fluoro-3-pyridyl)methanol] the same measures were more than 75% and less than 25%. For `CO[C@H]1CCC[C@@H](C(C)(C)NC[C@H](O)c2cccc(F)c2)C1` [Compound 256, (R)-2-{1-[(1R,3S)-3-methoxycyclohexyl]-1-methylethylamino}-1-(m-fluorophenyl)-1-ethanol] the same measures were more than 75% and 25 to 50%. With `O[C@@H](c1ccccc1F)C12CCC(CCc3cccnc3)(CC1)N2` [Compound 547, (S)-(o-fluorophenyl){4-[2-(3-pyridyl)ethyl]-7-azabicyclo[[2.2.1]]hept-1-yl}methanol], in the assay on L6-myotubes [1] (setting [3]), the Emax at 10 µM was more than 75%.

`CC(C)NCC(O)c1ccc(O)c(O)c1` (centres unmarked) [isoprenaline, reference compound]: the glucose uptake entry in the assay with L6-myotubes [1] (L6-myotubes, FIGS. 2a-2d) is “full glucose uptake response”. Consider `Oc1ccc(C(O)CNCCCC(F)(F)F)cc1` (centres unmarked) [Compound 31, 1-(p-hydroxyphenyl)-2-(4,4,4-trifluorobutylamino)-1-ethanol], for which, in the assay on L6-myotubes [1] (setting [5]), the Emax at 10 µM lay in the range of 50 to 75%. As to `CN([C@H]1CC[C@H](CC(C)(C)NC[C@H](O)c2cccc(F)c2)CC1)S(C)(=O)=O` [Compound 499, (R)-2-{1,1-dimethyl-2-[(1r,4R)-4-(N-mesyl-N-methylamino)cyclohexyl]ethylamino}-1-(m-fluorophenyl)-1-ethanol], the Emax at 10 µM in the assay on L6-myotubes [1] (setting [3]) was 25 to 50%. `CCCCNCC(O)c1ccc(O)cc1` (centres unmarked) [Compound 1, 2-(butylamino)-1-(p-hydroxyphenyl)-1-ethanol]: in the assay with L6-myotubes [1] (setting [5]), the Emax at 10 µM was more than 75%.

These data come from patent US20260216294A1, “BETA 2-ADRENERGIC RECEPTOR AGONISTS FOR TREATMENT OR PREVENTION OF MUSCLE WASTING” (ATROGI AB, priority 2023, published 2026).
